Data as given in patent US20230129359A1, “MUSCARINIC RECEPTOR 4 ANTAGONISTS AND METHODS OF USE” (Neurocrine Biosciences, Inc., priority 2020, published 2023).

Target: T1, human M4 receptor (Homo sapiens, UniProt P08173)
T1 construct: expressed in transfected cells; host or cells: CHO cells
T1 sequence (P08173 1-479): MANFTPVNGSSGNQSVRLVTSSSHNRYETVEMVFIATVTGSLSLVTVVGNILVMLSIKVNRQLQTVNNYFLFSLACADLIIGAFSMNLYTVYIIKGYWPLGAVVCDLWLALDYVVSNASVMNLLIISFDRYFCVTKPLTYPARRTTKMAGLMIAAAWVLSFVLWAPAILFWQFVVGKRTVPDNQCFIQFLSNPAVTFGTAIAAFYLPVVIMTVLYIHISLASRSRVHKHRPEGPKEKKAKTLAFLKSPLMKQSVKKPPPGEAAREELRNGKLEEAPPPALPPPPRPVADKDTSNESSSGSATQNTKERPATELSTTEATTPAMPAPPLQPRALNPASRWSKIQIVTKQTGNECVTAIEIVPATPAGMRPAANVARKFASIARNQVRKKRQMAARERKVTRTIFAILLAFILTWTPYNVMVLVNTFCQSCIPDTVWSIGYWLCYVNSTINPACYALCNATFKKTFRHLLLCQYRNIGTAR
Assay: Radioligand ([3H]N-methylscopolamine) binding assay, membranes from CHO cells expressing human M4 receptor
Conditions: Ki against human M4 receptor; membranes from CHO cells; tritiated N-methylscopolamine 1.5 nM; read-out: K
Procedure, shortened: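 Ki values derive from displacement of tritiated N-methylscopolamine (1.5 nM) from human M4 receptor in CHO membranes. Membranes, radioligand and twelve-point compound series were incubated together at 37 °C for 90 minutes in pH 7.4 HEPES/NaCl/MgCl2/EDTA buffer. Rapid vacuum filtration over polyethylenimine-pretreated filters was followed by radioactivity counting.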

| Compound | Ki [nM] |
| --- | --- |
| C[C@@H]1CN(c2ncc(C(F)(F)F)c(N)n2)C[C@H](C)N1C(=O)OC1CC2(C1)CN(Cc1ccccc1)C2 [Compound 463, 2-benzyl-2-azaspiro[3.3]heptan-6-yl (2R,6S)-4-[4-amino-5-(trifluoromethyl)pyrimidin-2-yl]-2,6-dimethylpiperazine-1-carboxylate] | < 10 |
| C[C@@H]1CN(c2ncc(C(F)F)cn2)C[C@H](C)N1C(=O)OC1CC2(C1)CN(Cc1ccccc1)C2 [Compound 464, 2-benzyl-2-azaspiro[3.3]heptan-6-yl (2R,6S)-4-[5-(difluoromethyl)pyrimidin-2-yl]-2,6-dimethylpiperazine-1-carboxylate] | 10 to 100 |
| C[C@@H]1CN(c2ncc(OC(F)F)cn2)C[C@H](C)N1C(=O)OC1CC2(C1)CN(Cc1ccc(F)cc1)C2 [Compound 465, 2-[(4-fluorophenyl)methyl]-2-azaspiro[3.3]heptan-6-yl (2R,6S)-4-[5-(difluoromethoxy)pyrimidin-2-yl]-2,6-dimethylpiperazine-1-carboxylate] | < 10 |
| C[C@@H]1CN(c2ncc(C(F)(F)F)c(N)n2)C[C@H](C)N1C(=O)OC1CC2(C1)CN(Cc1ccc(F)cc1)C2 [Compound 466, 2-[(4-fluorophenyl)methyl]-2-azaspiro[3.3]heptan-6-yl (2R,6S)-4-[4-amino-5 (trifluoromethyl)pyrimidin-2-yl]-2,6-dimethylpiperazine-1-carboxylate] | < 10 |
| C[C@@H]1CN(c2ncc(C(F)F)cn2)C[C@H](C)N1C(=O)OC1CC2(C1)CN(Cc1ccc(F)cc1)C2 [Compound 467, 2-[(4-fluorophenyl)methyl]-2-azaspiro[3.3]heptan-6-yl (2R,6S)-4-[5-(difluoromethyl)pyrimidin-2-yl]-2,6-dimethylpiperazine-1-carboxylate] | 10 to 100 |
| C[C@@H]1CN(c2ncc(F)cn2)C[C@H](C)N1C(=O)OC1CC2(C1)CN(Cc1ccc(F)cc1)C2 [Compound 468, 2-[(4-fluorophenyl)methyl]-2-azaspiro[3.3]heptan-6-yl (2R,6S)-4-(5-fluoropyrimidin-2-yl)-2,6-dimethylpiperazine-1-carboxylate] | 10 to 100 |
| CNC(=O)c1cnc(N2C[C@@H](C)N(C(=O)OC3CC4(C3)CN(Cc3ccccc3)C4)[C@@H](C)C2)nc1 [Compound 471, 2-benzyl-2-azaspiro[3.3]heptan-6-yl (2R,6S)-2,6-dimethyl-4-[5-(methylcarbamoyl)pyrimidin-2-yl]piperazine-1-carboxylate] | 100 to 1000 |
| C[C@@H]1CN(c2ncc(C#N)cn2)C[C@H](C)N1C(=O)OC1CC2(C1)CN(Cc1ccc(F)cc1)C2 [Compound 472, 2-[(4-fluorophenyl)methyl]-2-azaspiro[3.3]heptan-6-yl (2R,6S)-4-(5-cyanopyrimidin-2-yl)-2,6-dimethylpiperazine-1-carboxylate] | 10 to 100 |
| C[C@@H]1CN(c2ncc(C#N)cn2)[C@@H](C)CN1C(=O)OC1CC2(C1)CN(Cc1ccc(F)cc1)C2 [Compound 473, 2-[(4-fluorophenyl)methyl]-2-azaspiro[3.3]heptan-6-yl (2R,5S)-4-(5-cyanopyrimidin-2-yl)-2,5-dimethylpiperazine-1-carboxylate] | 10 to 100 |
| C[C@@H]1CN(c2ncc(C#N)cn2)C[C@H](C)N1C(=O)OC1CC2(C1)CN(Cc1ccc(Cl)cc1)C2 [Compound 475, 2-[(4-chlorophenyl)methyl]-2-azaspiro[3.3]heptan-6-yl (2R,6S)-4-(5-cyanopyrimidin-2-yl)-2,6-dimethylpiperazine-1-carboxylate] | 10 to 100 |
| C[C@@H]1CN(c2ncc(C(F)(F)F)cn2)CCN1C(=O)OC1CC2(C1)CN(Cc1ccc(Cl)cc1)C2 [Compound 478, 2-[(4-chlorophenyl)methyl]-2-azaspiro[3.3]heptan-6-yl (2R)-2-methyl-4-[5-(trifluoromethyl)pyrimidin-2-yl]piperazine-1-carboxylate] | 100 to 1000 |
| C[C@@H]1CN(c2cnc(C(F)(F)F)cn2)C[C@H](C)N1C(=O)OC1CC2(C1)CN(Cc1ccc(Cl)cc1)C2 [Compound 479, 2-[(4-chlorophenyl)methyl]-2-azaspiro[3.3]heptan-6-yl (2R,6S)-2,6-dimethyl-4-[5-(trifluoromethyl)pyrazin-2-yl]piperazine-1-carboxylate] | 10 to 100 |
| C[C@@H]1CN(c2cnc(C(F)(F)F)cn2)[C@@H](C)CN1C(=O)OC1CC2(C1)CN(Cc1ccc(Cl)cc1)C2 [Compound 480, 2-[(4-chlorophenyl)methyl]-2-azaspiro[3.3]heptan-6-yl (2R,5S)-2,5-dimethyl-4-[5-(trifluoromethyl)pyrazin-2-yl]piperazine-1-carboxylate] | 10 to 100 |
| C[C@@H]1CN(c2ncc(C(F)(F)F)cn2)[C@@H](C)CN1C(=O)OC1CC2(C1)CN(Cc1ccc(Cl)cc1)C2 [Compound 482, 2-[(4-chlorophenyl)methyl]-2-azaspiro[3.3]heptan-6-yl (2R,5S)-2,5-dimethyl-4-[5-(trifluoromethyl)pyrimidin-2-yl]piperazine-1-carboxylate] | < 10 |
| C[C@@H]1CN(c2ncc(C#N)cn2)CCN1C(=O)OC1CC2(C1)CN(Cc1ccc(Cl)cc1)C2 [Compound 483, 2-[(4-chlorophenyl)methyl]-2-azaspiro[3.3]heptan-6-yl (2R)-4-(5-cyanopyrimidin-2-yl)-2-methylpiperazine-1-carboxylate] | 100 to 1000 |
| C[C@@H]1CN(c2ncc3cc(F)ccc3n2)[C@@H](C)CN1C(=O)OC1CC2(C1)CN(Cc1ccccc1)C2 [Compound 484, 2-benzyl-2-azaspiro[3.3]heptan-6-yl (2R,5S)-4-(6-fluoroquinazolin-2-yl)-2,5-dimethylpiperazine-1-carboxylate] | < 10 |
| C[C@@H]1CN(c2ncc(C(=O)N(C)C)cn2)C[C@H](C)N1C(=O)OC1CC2(C1)CN(Cc1ccccc1)C2 [Compound 489, 2-benzyl-2-azaspiro[3.3]heptan-6-yl (2R,6S)-4-[5-(dimethylcarbamoyl)pyimidin-2-yl]-2,6-dimethylpiperazine-1-carboxylate] | 100 to 1000 |
| O=C(OC1CC2(C1)CN(Cc1ccccc1)C2)N1CC2COCC(C1)N2c1ncc(C(F)(F)F)cn1 [Compound 495, 2-benzyl-2-azaspiro[3.3]heptan-6-yl 9-[5-(trifluoromethyl)pyrimidin-2-yl]-3-oxa-7,9-diazabicyclo[3.3.1]hnonane-7-carboxylate] | 10 to 100 |
| O=C(OC1CC2(C1)CN(Cc1ccccc1)C2)N1CC2COCC(C1)N2c1cnc(C(F)(F)F)cn1 [Compound 496, 2-benzyl-2-azaspiro[3.3]heptan-6-yl 9-[5-(trifluoromethyl)pyrazin-2-yl]-3-oxa-7,9-diazabicyclo[3.3.1]nonane-7-carboxylate] | 100 to 1000 |
| CCc1cnc(N2C[C@@H](C)N(C(=O)OC3CC4(C3)CN(Cc3ccccc3)C4)[C@@H](C)C2)nc1 [Compound 497, 2-benzyl-2-azaspiro[3.3]heptan-6-yl (2R,6S)-4-(5-ethylpyrimidin-2-yl)-2,6-dimethylpiperazine-1-carboxylate] | < 10 |
| C[C@@H]1CN(c2ncc(OC(F)(F)F)cn2)C[C@H](C)N1C(=O)OC1CC2(C1)CN(Cc1ccccc1)C2 [Compound 498, 2-benzyl-2-azaspiro[3.3]heptan-6-yl (2R,6S)-2,6-dimethyl-4-[5-(trifluoromethoxy)pyrimidin-2-yl]piperazine-1-carboxylate] | < 10 |
| C[C@@H]1CN(c2ncc(OCC3CC3)cn2)C[C@H](C)N1C(=O)OC1CC2(C1)CN(Cc1ccccc1)C2 [Compound 499, 2-benzyl-2-azaspiro[3.3]heptan-6-yl (2R,6S)-4-[5-(cyclopropylmethoxy)pyrimidin-2-yl]-2,6-dimethylpiperazine-1-carboxylate] | < 10 |
| C[C@@H]1CN(c2ncc(C(F)(F)F)cn2)[C@@H](C)CN1C(=O)OC1CC2(C1)CN(Cc1ccc(S(C)(=O)=O)cc1)C2 [Compound 501, 2-[(4-methanesulfonylphenyl)methyl]-2-azaspiro[3.3]heptan-6-yl (2R,56S)-2,5-dimethyl-4-[5-(trifluoromethyl)pyrimidin-2-yl]piperazine-1-carboxylate] | 100 to 1000 |
| C[C@@H]1CN(c2cnc(C(F)(F)F)cn2)[C@@H](C)CN1C(=O)OC1CC2(C1)CN(Cc1ccc(S(C)(=O)=O)cc1)C2 [Compound 503, 2-[(4-methanesulfonylphenyl)methyl]-2-azaspiro[3.3]heptan-6-yl (2R,5S)-2,5-dimethyl-4-[5-(trifluoromethyl)pyrazin-2-yl]piperazine-1-carboxylate] | 100 to 1000 |
| CCCc1cnc(N2C[C@@H](C)N(C(=O)OC3CC4(C3)CN(Cc3ccccc3)C4)[C@@H](C)C2)nc1 [Compound 504, 2-benzyl-2-azaspiro[3.3]heptan-6-yl (2R,6S)-2,6-dimethyl-4-(5-propylpyrimidin-2-yl)piperazine-1-carboxylate] | < 10 |
| CC(C)c1cnc(N2C[C@@H](C)N(C(=O)OC3CC4(C3)CN(Cc3ccccc3)C4)[C@@H](C)C2)nc1 [Compound 505, 2-benzyl-2-azaspiro[3.3]heptan-6-yl (2R,6S)-2,6-dimethyl-4-[5-(rpopan-2-yl)pyrimidin-2-yl]piperazine-1-carboxylate] | < 10 |
